Patent US20260315446A1, “ANTIFUNGAL COMPOUNDS AND USES THEREOF” (priority 2023, published 2026)
≈ marks a conversion by molar mass, not a printed value. Entries after “also recorded” stand apart in the source; their conditions may differ. Like-named read-outs stand apart in the source and are kept apart here.

Legend:
[1] = tested on: Candida albicans (SC5314); test: Broth microdilution MIC (Example 1); assay type: cell-based; conditions: Candida albicans, SC5314; in the presence of 1 μg/mL fluconazole; read-out: MIC against Candida albicans (SC5314)
Description: (§1) MICs/minimum effective concentrations (MECs) were determined for each of the novel analogs against the three major human fungal pathogens, A. fumigatus, C. neoformans, and C. albicans. […] Thus, analogs of FK506 and FK520 can tolerate up to 100-fold reduction in antifungal activity and still be considered for in vivo testing. For C. neoformans, MICs were the most uniform and ranged from 0.2 to 2 μg/mL, which is between 4- and 40-fold reduced for antifungal activity.
(§2) In vitro antifungal activities of FK506, FK520, and analogs were assessed in RPMI 1640 (Sigma-Aldrich) for all strains tested. MICs/minimum effective concentrations (MECs) for each drug were measured using modified Clinical and Laboratory Standards Institute (CLSI) M38-A2 and M27-A3 standard in vitro antifungal susceptibility protocols. Broth microdilution assays for MIC/MEC assessment were performed as described previously (see, Juvvadi P R, et al., 2019, Nat Commun 10:4275). All antifungal assays with C. neoformans were performed at 37° C. Antifungal susceptibility testing for C. albicans was performed in the presence of a uniform 1 μg/mL concentration of fluconazole to sensitize the organism to calcineurin inhibition.

[2] = tested on: Cryptococcus neoformans (H99); test: Broth microdilution MIC (Example 1); assay type: cell-based; conditions: for MIC: Cryptococcus neoformans, 37° C., read-out: MIC against Cryptococcus neoformans (H99)
Description: as §1, §2

Aspergillus fumigatus = test: Broth microdilution MIC/MEC (Example 1); assay type: cell-based; conditions: Aspergillus fumigatus; strain Af293; read-out: MEC against Aspergillus fumigatus (Af293)
Description: as §1
To assess the antifungal activity against other human fungal pathogens, JH-FK-05 was selected to test against a panel of pathogenic molds and drug-resistant A. fumigatus strains (Table 4). JH-FK-05 registered MECs as low as 1 μg/mL for some of these highly recalcitrant species, such as Mucor circinelloides, Rhizopus oryzae, and pan azole-resistant A. fumigatus (strain F14946).
as §2

C. neoformans = test: MIC assay (Example 4); assay type: cell-based, Cryptococcus neoformans; conditions: for MIC: Cryptococcus neoformans
Description: Both JH-FK-10 and JH-FK-11 maintained in vitro antifungal activity against C. neoformans with MICs of 0.8 and 1.6 μg/mL, respectively (Table 11).
In vitro antifungal activity of FK506, FK520, and analogs was assessed in RPMI 1640 (Sigma-Aldrich) for all strains tested. Minimum inhibitory concentrations (MIC) for each drug were measured using modified Clinical and Laboratory Standards Institute (CLSI) M38-A2 and M27-A3 standard in vitro antifungal susceptibility protocols. Broth microdilution assays for MIC assessment were performed as previously described. All antifungal assays with C. neoformans were performed at 37° C.

[3] = tested on: IL-2 expression in primary murine CD4+ T cells; test: In vitro immunosuppressive activity, IL-2 expression (Example 4); assay type: cell-based, mouse; conditions: for IC50: Mus musculus, CD4+ T
Description: Spleen and lymph nodes were collected from C57BL/6 mice and homogenized through a 40 μm filter. Pan-CD4^+ T cells were enriched using MagniSort Mouse CD4 T cell Kit (eBioscience) according to the manufacturer's protocol. Thereafter, CD4+CD25−CD44lo CD62Lhi naïve T cells were FACS-sorted. The naïve CD4+ T cells were grown in Iscove's Modified Dulbecco's Medium (IMDM) supplemented with glutamine, penicillin, streptomycin, gentamicin, 2-mercaptoethanol, and 10% FBS. Cells were then cultured on anti-hamster IgG coated plates in the presence of hamster anti-CD3 epsilon and anti-CD28 antibodies (BD Biosciences), neutralizing anti-IL-4 antibody (eBioscience), recombinant IL-12 (10 ng/mL), and recombinant IL-2 (50 U/mL) for 72 h. During this period, cells were grown in the presence of 2× serially diluted FK506, FK520, or analog suspended in DMSO for 72 h. During the last 4 h of culture, phorbol 12-myristate 13-acetate (PMA; Sigma), ionomycin (Sigma), and GolgiStop (BD Biosciences) were added to the culture to facilitate detection of intracellular cytokines via flow cytometry.
Live cells were stained with FITC-conjugated anti-CD4 antibody (eBioscience) and Fixable Viability Dye eFluor 506 (eBioscience) on ice, followed by fixation and permeabilization using the Foxp3 Transcription Factor Staining Kit (eBioscience). Intracellular staining was performed at room temperature using PE-conjugated anti-IL-2 antibody (eBioscience), followed by analysis with a BD LSRFortessa X-20 flow cytometer.

[4] = tested on: C. neoformans growth versus IL-2 in murine T cells; test: Therapeutic index score (immunosuppressive fold change to antifungal fold change relative to FK506); parameters: species or system Cryptococcus neoformans; mouse; conditions: Table 12, Example 4; FK506 = 1.0
Text: To assess the therapeutic potential for these compounds, it was important to develop an approach to score and rank them based on antifungal and immunosuppressive activities. The therapeutic index score (TIscore) is a ratio of the immunosuppressive fold change to the antifungal fold change, with all values relative to the baseline FK506 activity (FIG. 6B). A TIscore of >1.0 indicates an increase in fungal specificity because the fold change of the immunosuppressive reduction is greater than the antifungal activity reduction. As an example, JH-FK-05 is 20-fold reduced for antifungal activity but about 180-fold reduced for immunosuppression. Therefore, the TIscore of JH-FK-05 is 9.1 (TIscore=182/20). The top two analogs were JH-FK-02 (TIscore=9.7) and JH-FK-05 (TIscore=9.1). Due to the similar TIscore, JH-FK-05 was prioritized to advance to animal trials on the merit of more pronounced antifungal activity compared to JH-FK-02.
Based on the in vitro fungal and mammalian calcineurin inhibition data, the panel of FK520 analogs was assessed and ranked. Therapeutic index (TI) scores were used to quantify the effects of structural modification on the compounds (Table 8). Therapeutic index scores were calculated for each analog as the ratio of relative change in immunosuppressive and antifungal activities compared to FK506 as previously utilized (see, I-Toy M J, et at. 2022. mBio 13:e0104922). This ratio of therapeutic benefit and host toxicity, or fungal and mammalian calcineurin inhibition, allowed us to quantify and rank these analogs. […] This is the greatest TI found within the library and allowed us to identify JH-FK-08 as a lead candidate for an in vivo study. Tolerability of JH-FK-08 was assessed by monitoring animal responses to drug dosing across 14 days, including changes in weight, fur condition, and behavior. A maximum dose of 40 mg/kg was tested in once a day dosing, and due to solubility limitations, the tolerability of JH-FK-08 at 60 and 80 mg/kg total daily doses was assessed by dosing two equal doses per day (FIG. 14). […] It should be noted that analogs JH-FK-12 and JH-FK-23 are also promising candidates with respective Tis of 24.7 and 24.5.

SMILES	MIC [1]	MIC [2]	minimal effective concentration (Aspergillus fumigatus)	other results
CC[C@@H]1/C=C(\C)C[C@H](C)C[C@H](OC)[C@H]2O[C@@](O)(C(=O)C(=O)N3CCCC[C@H]3C(=O)O[C@H](/C(C)=C/[C@@H]3CC[C@@H](O)[C@H](OC)C3)[C@H](C)[C@@H](O)C/C1=N/NC(=O)C(F)(F)F)[C@H](C)C[C@@H]2OC [JH-FK-07]	0.2 µg/mL	0.2 µg/mL (≈ 0.222 µM)	1.25 µg/mL	broad-spectrum antifungal activity / MIC ranking ([2]; C. neoformans, C. albicans, A. fumigatus): maintained high levels of broad-spectrum antifungal activity across the three species; also recorded: had the lowest MICs for both C. neoformans and C. albicans
C=CC[C@@H]1/C=C(\C)C[C@H](C)C[C@H](OC)[C@H]2O[C@@](O)(C(=O)C(=O)N3CCCC[C@H]3C(=O)O[C@H](/C(C)=C/[C@@H]3CC[C@@H](O)[C@H](OC)C3)[C@H](C)[C@@H](O)C/C1=N/NC(C)=O)[C@H](C)C[C@@H]2OC [JH-FK-01]	0.4 µg/mL	1 µg/mL (≈ 1.16 µM)	1 µg/mL	
CC[C@@H]1/C=C(\C)C(O)[C@H](C)C[C@H](OC)[C@H]2O[C@@](O)(C(=O)C(=O)N3CCCC[C@H]3C(=O)O[C@H](/C(C)=C/C3CC[C@@H](O)[C@H](OC)C3)[C@H](C)[C@@H](O)C/C1=N/NC(C)=O)[C@H](C)C[C@@H]2OC (some centres unmarked) [JH-FK-18]				C. neoformans MIC (C. neoformans; 37° C., Table 13): >50 µg/mL; MIC (C. neoformans; 37° C., Table 13, read-out: C. neoformans MIC): > 50 µg/mL; antifungal activity (C. neoformans; up to a maximum concentration of 50 μg/mL): no detectable antifungal or immunosuppressive activity; also recorded: no detectable biological activity; IL-2 production ([3]; 200 nM): no changes in IL-2 production; IC50 ([3]; Table 13): > 200 nM
C=CC[C@@H]1/C=C(\C)C[C@H](C)C[C@H](OC)[C@H]2O[C@@](O)(C(=O)C(=O)N3CCCC[C@H]3C(=O)O[C@H](/C(C)=C/[C@@H]3CC[C@@H](O)[C@H](OC)C3)[C@H](C)[C@@H](O)CC1=NNC(=O)CN(C)C)[C@H](C)C[C@@H]2OC [JH-FK-04]	6.25 µg/mL	2 µg/mL (≈ 2.21 µM)	2 µg/mL	
C=CC[C@@H]1/C=C(\C)C[C@H](C)C[C@H](OC)[C@H]2O[C@@](O)(C(=O)C(=O)N3CCCC[C@H]3C(=O)O[C@H](/C(C)=C/[C@@H]3CC[C@@H](O)[C@H](OC)C3)[C@H](C)[C@@H](O)C/C1=N/NC(=O)c1ccccc1)[C@H](C)C[C@@H]2OC [JH-FK-03]	0.8 µg/mL	1 µg/mL (≈ 1.08 µM)	1 µg/mL	
CC[C@@H]1/C=C(\C)C(O)[C@H](C)C[C@H](OC)[C@H]2O[C@@](O)(C(=O)C(=O)N3CCCC[C@H]3C(=O)O[C@H](/C(C)=C/[C@@H]3CC[C@@H](O)[C@H](OC)C3)[C@H](C)[C@@H](O)CC1=O)[C@H](C)C[C@@H]2OC (some centres unmarked) [JH-FK-10]				Therapeutic Index Score [4]: 3.2; MIC (C. neoformans; 37° C., Table 11, read-out: C. neoformans MIC): 0.8 µg/mL (≈ 0.99 µM); MIC (C. neoformans; read-out: C. neoformans MIC, 37° C., Table 12): 0.8 µg/mL (≈ 0.99 µM); immunosuppressive activity [3]: detectable immunosuppressive activities; IC50 ([3]; Table 12): 5.7 nM
